We go through four compounds from patent publication US6395255B1, “Radiolabeled vasoactive intestinal peptide analogs for imaging and therapy” (Thomas Jefferson University, priority 1998, dated 2002).

Series [1] can be described thus: Tissue distribution and gamma camera imaging in nude mice bearing LS174T tumors. Particulars: athymic NCr nude, mouse, iv, total radioactivity, 24 h postinjection, mean ± SD, n = 5; for tissue uptake at 24 h: Biodistribution.
Experimental: Tissue Distribution Studies
(§1) The ability of ^99MTc-TP3654 to detect human colorectal carcinoma was examined in nude mice.
(§2) Human colorectal cancer cells LS 174T (ATCC) were grown in culture and 5×10^6 viable cells were implanted intramuscularly in the right thighs of athymic NCr nude mice that weighed 20-25 g. Tumors were grown to no more than 1 cm in diameter. Each animal received approximately 700 Ci of ^99mTc-TP3654 (1450 Ci/mrnol) in 200 1, of saline through a lateral tail vein. Exact activity injected was determined by measuring the syringe, before and after injection, in a calibrated ionization chamber (Capintech, Ramsey, N.J.). A suitable standard of ^99mTc was prepared at the time of injection.
(§3) At 4 or 24 h later, animals were killed and imaged using a GE STARCAM gamma camera (Milwaukee, Wis.) equipped with a low-energy parallel-hole collimator and a dedicated computer. Tissues were dissected and weighed, and associated radioactivity was counted (Packard 5000 series gamma counter), along with a standard, in duplicate. Results were calculated as percentage injected dose per gram of tissue (% ID/g) and were analyzed by using Student t test.
(§4) A tissue distribution study was performed in a manner similar to that for ^99mTc-TP3654.
(§5) For animal tissue distribution studies, a protocol similar to that for ^99mTc-TP3654 was followed.
Series [2] concerns LS174T human colorectal tumor. The description is as above. The settings on record: for delineation of tumor in gamma camera image: nude mice bearing LS174T tumor in right thigh, 24 h after injection.
Experimental: Tissue Distribution Studies
as §1, §2, §3, §4, §5
In series [3] the test system is VIP receptor. The series can be described thus: Receptor blocking with unlabeled VIP-28 or TP3654 in LS174T tumor-bearing nude mice. The series is classed as in vivo. The settings on record: 50 μg unlabeled peptide intravenously 30 min before tracer, 24 h, vs not pretreated mice. The method, then:
Receptor Blocking […] Mice were killed 24 h later, and percentage injected dose per gram of tissues was determined. Data were compared to 24 h distribution in mice (n=5) given 700 μCi ^99mTc-TP3654 but not pretreated with unlabeled VIP or TP3654.

Details of series [4]: species or system Sprague-Dawley rats. The settings on record: Sprague-Dawley, rat, in vivo, iv. The method, then:
Blood Clearance in Rats Three Sprague-Dawley rats, each weighing approximately 250 g, were injected through a lateral tail vein with 1 mCi ^99mTcTP3654 and serial blood samples were drawn, in triplicate, through the other lateral tail vein at 1, 5, 10, 15 and 30 min and then at 1, 2, 4, 6, 18 and 24 h. Blood samples were weighed, radioactivity was counted with a standard ^99mTc solution prepared at the time of injection and the percentage injected dose per gram of blood was plotted as a function of time.

The nature of series [5]: in vivo. Particulars: rat, total radioactivity.
The format of series [6] is physicochemical. Here is the method:
Stability of ^99mTc-TP3654 To measure the in vitro stability of ^99mTc-TP3654, a known quantity of the preparation was incubated at 37° C. for 24 h, with 100 molar excess of DTPA, HSA or cysteine. At 0, 5 and 24 h, samples were withdrawn for HPLC analysis and the radioactivity that was associated with the challenging agent and that remained as ^99mTc-TP3654 (Rt=11.8 min) was measured.

Series [7] in a line: in vivo. The settings on record: athymic NCr nude, mouse, iv, total radioactivity; for tissue uptake at 4 h / tissue uptake at 24 h: Biodistribution.
Experimental: Tissue Distribution Studies
as §1, §2, §3, §4, §5
For series [8], the system named is LS174T human colorectal tumor. The settings on record: athymic NCr nude, mouse, in vivo, iv, 24 h.
Experimental: Tissue Distribution Studies
as §1, §2, §3, §4, §5
Series [9] relates to internal anal sphincter (IAS) smooth muscle. The series can be described thus: Functional assay using opossum internal anal sphincter smooth muscle strips (fall in resting tension). The series is classed as tissue-based, opossums (Didelphis virginiana). The settings on record: at 10^−6 mol/L; 100% = maximal relaxation with 5 mmol/L EDTA.
Series [10] relates to colonic adenocarcinoma. The settings on record: cited from earlier work.

“Also recorded” adds a separate entry of the source. Square brackets hold non-standard residues; d marks the D form. Ends that are not written are not given here. Peptide text beside a SMILES is read from it. GABA = NCCCC(=O)O

Consider `C[C@@H](NC(=O)CN)C(=O)NCC(=O)NCC(=O)NCCCC(=O)O` [^99mTc-G(D)AGG-Aba, metal not drawn] (H-G[dA]GG[GABA]-OH; N-terminus and C-terminus assumed), for which the tissue uptake – broadly, the share of the injected amount in each gram of the tissue – at 24 h in [1] (blood, nude mice bearing LS174T tumors) turned out to be 0.03 %ID/g; in series [1] (heart, nude mice bearing LS174T tumors), 0.01 %ID/g; in series [1] (kidney, nude mice bearing LS174T tumors), 0.2 ± 0.02 %ID/g; in series [1] (liver, nude mice bearing LS174T tumors), 0.16 ± 0.02 %ID/g; in series [1] (lung, nude mice bearing LS174T tumors) it was 0.03 %ID/g; in [1] (muscle, nude mice bearing LS174T tumors) it was 0.01 %ID/g. For the same compound, the tissue uptake at 24 h in [1] (small intestine, nude mice bearing LS174T tumors) worked out at 0.03 ± 0.01 %ID/g; in series [1] (spleen, nude mice bearing LS174T tumors) it was 0.06 ± 0.03 %ID/g; in series [1] (tumor, LS174T tumor, nude mice), 0.03 %ID/g. Also, the tissue to tissue ratio at 24 h amounted to 0.77 ± 0.03 in series [1] (tumor/blood, T/B ratio (tumor-to-blood), nude mice bearing LS174T tumors) and 1.88 ± 0.36 in series [1] (tumor/muscle, T/M ratio (tumor-to-muscle), nude mice bearing LS174T tumors). Moreover, in series [2] (kidney, 24 h postinjection, nude mice bearing LS174T tumors, mean ± SD, n = 5), the “Biodistribution, Kidney” value amounted to 0.2±0.02 % ID/g. Also, the “delineation of tumor in gamma camera image” value is on record as “not delineated” in series [2] and “not” in series [2] (listed as 99mTc-G(D)AGG).

Consider `CC[C@H](C)[C@H](NC(=O)[C@H](CO)NC(=O)[C@H](CC(N)=O)NC(=O)[C@H](CC(C)C)NC(=O)[C@H](Cc1ccc(O)cc1)NC(=O)[C@H](CCCCN)NC(=O)[C@H](CCCCN)NC(=O)[C@@H](NC(=O)[C@H](C)NC(=O)[C@H](CCSC)NC(=O)[C@H](CCC(N)=O)NC(=O)[C@H](CCCCN)NC(=O)[C@H](CCCNC(=N)N)NC(=O)[C@H](CC(C)C)NC(=O)[C@H](CCCNC(=N)N)NC(=O)[C@@H](NC(=O)[C@H](Cc1ccc(O)cc1)NC(=O)[C@H](CC(N)=O)NC(=O)[C@H](CC(=O)O)NC(=O)[C@@H](NC(=O)[C@H](Cc1ccccc1)NC(=O)[C@@H](NC(=O)[C@H](C)NC(=O)[C@H](CC(=O)O)NC(=O)[C@H](CO)NC(=O)[C@@H](N)Cc1c[nH]cn1)C(C)C)[C@@H](C)O)[C@@H](C)O)C(C)C)C(=O)N[C@@H](CC(C)C)C(=O)N[C@@H](CC(N)=O)C(=O)NCCCC(=O)NCC(=O)NCC(=O)N[C@H](C)C(=O)NCC(=O)O` [^99mTc-TP3654, metal not drawn], for which, in [3], the “uptake of ^99mTc-TP3654 after pretreatment with unlabeled TP3654 or VIP” value is “decreased in all VIP receptor-rich tissues except the kidneys”. The “blood clearance α-t 1/2” value in series [4] is reported as “approximately 5 min”. Also, in series [4], the “blood clearance β-t½” value was “approximately 120 min”. Besides, the tissue uptake at 4 h in series [5] is 0.73 ± 0.12 %ID/g; in [7] (Blood) it was 0.21 ± 0.02 %ID/g; in series [7] (Heart) it was 0.1 %ID/g; in series [7] (Kidney), 19 ± 3.75 %ID/g; in [7] (Liver), 1.12 ± 0.08 %ID/g; in series [7] (Lung), 0.17 ± 0.01 %ID/g. The tissue uptake at 4 h in series [7] (Muscle) came to 0.09 ± 0.01 %ID/g; in series [7] (Small intestine), 0.18 ± 0.05 %ID/g; in [7] (Spleen) it was 0.19 ± 0.05 %ID/g; in [7] (Tumor), 0.24 ± 0.06 %ID/g. Further, in series [6], the “stability on storage (HPLC)” value is recorded as “stable for up to 24 h”. Further, the “radioactivity displaced by challenge with 100 molar excess of DTPA, HSA or cysteine” value in series [6] (24 h of incubation at 37° C.) is given as “approximately 11%”. Also, the “delineation of tumor in gamma camera image” value in [2] is “delineates the tumor and both kidneys; also recorded: clearly delineated”. The tissue uptake at 24 h in series [7] (Blood) worked out at 0.12 ± 0.02 %ID/g; in series [7] (Heart), 0.06 ± 0.01 %ID/g; in series [7] (Kidney), 3.52 ± 0.4 %ID/g; in [7] (Liver), 0.33 ± 0.04 %ID/g; in series [7] (Lung) it was 0.16 ± 0.09 %ID/g; in series [7] (Muscle), 0.04 ± 0.01 %ID/g. For the same compound, the tissue uptake at 24 h in [7] (Small intestine) was 0.05 ± 0.01 %ID/g; in series [7] (Spleen), 0.11 ± 0.02 %ID/g; in series [7] (Tumor) it was 0.2 %ID/g. Besides, the tissue to tissue ratio at 4 h in [7] (T/B ratio (tumor-to-blood)) came to 1.16 ± 0.29; in series [7] (T/M ratio (tumor-to-muscle)), 2.73 ± 1.09. For the same compound, the tissue to tissue ratio at 24 h came to 1.98 ± 1.44 in series [7] (T/B ratio (tumor-to-blood)) and 6.28 ± 3.09 in series [7] (T/M ratio (tumor-to-muscle)). In addition, the “Biodistribution, Tumor” value in [8] is on record as 0.23 ± 0.13 % ID/g.

On to “CPTA-VIP: VIP conjugated with the chelating agent CPTA, [4-(1,4,8,11-tetraazacyclotetradec-1-yl)methyl] benzoic acid (HSDAVFTDNYTRLRKQMAVKKYLNSILN; ends and bridges not checked; also: conjugated with chelator CPTA, position not given here; UniProt P01282 125-152, looked up)”, for which the “muscle relaxivity (fall in resting IAS tension)” value in series [9] worked out at 35%.

For the compound “I-123 labeled VIP: I-123 labeled vasoactive intestinal peptide (VIP)”, in series [10] (17 patients), the “positive scans in patients with colonic adenocarcinoma” value is 17 out of 17. Besides, the lung uptake result in series [10] (human, in vivo) is reported as “approximately 25%”. In series [10] (patients), the “effectiveness in imaging colorectal adenocarcinoma” value is given as 100%, the “effectiveness in imaging in patients with liver metastases” value is 83% and the “imaging of lung metastases” value was 66%.
